What all share (type): in vivo
Test [1] relates to Alopecurus myosuroides (ALOMY). The test is described as follows: Pre-emergence herbicidal glasshouse test on Alopecurus myosuroides. Conditions: pre-emergence; 1000 g/h; evaluated after 13 days. Summed up: (§1)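 Steps: sow seeds in standard soil; cultivate 1 d (pre-) or 8 d (post-emergence) at 24/16 °C, 14 h light, 65% humidity; spray 1000 g/h in acetone/water plus Tween 20; grow on, watering twice daily; score percentage damage after 13 d.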

Test [2] deals with Setaria faberi (SETFA). The test is described as follows: Pre-emergence herbicidal glasshouse test on Setaria faberi. The conditions noted are these: pre-emergence; 1000 g/h; evaluated after 13 days. Summed up:
as §1

In test [3] the test system is Echinochloa crus-galli (ECHCG). The test is described as follows: Pre-emergence herbicidal glasshouse test on Echinochloa crus-galli. Conditions: pre-emergence; 1000 g/h; evaluated after 13 days. Summed up:
as §1

Test [4] deals with Solanum nigrum (SOLNI). Nature of the test: Pre-emergence herbicidal glasshouse test on Solanum nigrum. The conditions noted are these: pre-emergence; 1000 g/h; evaluated after 13 days. Summed up:
as §1

The subject of test [5] is Amaranthus retoflexus (AMARE). The test is described as follows: Pre-emergence herbicidal glasshouse test on Amaranthus retoflexus. Conditions: pre-emergence; 1000 g/h; evaluated after 13 days. Summed up: as §1
The subject of test [6] is Ipomoea hederacea (IPOHE). The test is described as follows: Pre-emergence herbicidal glasshouse test on Ipomoea hederacea. Conditions: pre-emergence; 1000 g/h; evaluated after 13 days. The method, boiled down:
as §1

Test [7] has as its system Alopecurus myosuroides (ALOMY). Nature of the test: Post-emergence herbicidal glasshouse test on Alopecurus myosuroides. The conditions noted are these: post-emergence; 1000 g/h; evaluated after 13 days. Summed up: as §1
Test [8] relates to Setaria faberi (SETFA). The test is described as follows: Post-emergence herbicidal glasshouse test on Setaria faberi. Conditions: post-emergence; 1000 g/h; evaluated after 13 days. The method, boiled down:
as §1

Test [9] concerns Echinochloa crus-galli (ECHCG). Nature of the test: Post-emergence herbicidal glasshouse test on Echinochloa crus-galli. Conditions: post-emergence; 1000 g/h; evaluated after 13 days. Summed up: as §1
Test [10] deals with Solanum nigrum (SOLNI). The test is described as follows: Post-emergence herbicidal glasshouse test on Solanum nigrum. Conditions: post-emergence; 1000 g/h; evaluated after 13 days. Summed up:
as §1

Test [11] has as its system Amaranthus retoflexus (AMARE). Nature of the test: Post-emergence herbicidal glasshouse test on Amaranthus retoflexus. The conditions noted are these: post-emergence; 1000 g/h; evaluated after 13 days. Summed up:
as §1

Test [12] has as its system Ipomoea hederacea (IPOHE). Nature of the test: Post-emergence herbicidal glasshouse test on Ipomoea hederacea. The conditions noted are these: post-emergence; 1000 g/h; evaluated after 13 days. Summed up:
as §1

For the molecule `Cn1ncc(-n2ccc(C(F)(F)F)c(-c3ccc([N+](=O)[O-])cc3)c2=O)c(O)c1=O` [Compound 7.009], the “PRE Application ALOMY herbicidal damage (five point scale)” value (from here on “PRE Application ALOMY herbicidal damage”) in test [1] was 5 (5=80-100% damage). Besides, the “PRE Application SETFA herbicidal damage (five point scale)” value (from here on “PRE Application SETFA herbicidal damage”) in test [2] is listed as 5 (5=80-100% damage). Moreover, the “PRE Application ECHCG herbicidal damage (five point scale)” value (from here on “PRE Application ECHCG herbicidal damage”) in test [3] is given as 5 (5=80-100% damage). Further, the “PRE Application SOLNI herbicidal damage (five point scale)” value (from here on “PRE Application SOLNI herbicidal damage”) in [4] was 5 (5=80-100% damage). Besides, in test [5], the “PRE Application AMARE herbicidal damage (five point scale)” value (from here on “PRE Application AMARE herbicidal damage”) was 5 (5=80-100% damage). Moreover, in test [6], the “PRE Application IPOHE herbicidal damage (five point scale)” value (from here on “PRE Application IPOHE herbicidal damage”) is on record as 4 (4=60-79% damage). Besides, the “POST Application ALOMY herbicidal damage (five point scale)” value (from here on “POST Application ALOMY herbicidal damage”) in test [7] is 5 (5=80-100% damage). The “POST Application SETFA herbicidal damage (five point scale)” value (shortened to “POST Application SETFA herbicidal damage”) in test [8] was 5 (5=80-100% damage). Further, the “POST Application ECHCG herbicidal damage (five point scale)” value (“POST Application ECHCG herbicidal damage” below) in test [9] was 5 (5=80-100% damage). In addition, the “POST Application SOLNI herbicidal damage (five point scale)” value (from here on “POST Application SOLNI herbicidal damage”) in [10] was 5 (5=80-100% damage). In [11], the “POST Application AMARE herbicidal damage (five point scale)” value (shortened to “POST Application AMARE herbicidal damage”) is listed as 5 (5=80-100% damage). Also, the “POST Application IPOHE herbicidal damage (five point scale)” value (“POST Application IPOHE herbicidal damage” below) in [12] is on record as 5 (5=80-100% damage).

In the case of `Cn1ncc(-n2ccc(C(F)(F)F)c(-c3ccc(C(F)(F)F)nc3)c2=O)c(O)c1=O` [Compound 7.010], the “PRE Application ALOMY herbicidal damage” value in [1] was 5 (5=80-100% damage). Also, the “PRE Application SETFA herbicidal damage” value in test [2] is on record as 5 (5=80-100% damage). Moreover, in test [3], the “PRE Application ECHCG herbicidal damage” value is recorded as 5 (5=80-100% damage). Also, the “PRE Application SOLNI herbicidal damage” value in test [4] was 5 (5=80-100% damage). Also, in test [5], the “PRE Application AMARE herbicidal damage” value is on record as 5 (5=80-100% damage). In addition, the “PRE Application IPOHE herbicidal damage” value in test [6] is recorded as 5 (5=80-100% damage). The “POST Application ALOMY herbicidal damage” value in [7] is 5 (5=80-100% damage). Moreover, in test [8], the “POST Application SETFA herbicidal damage” value was 5 (5=80-100% damage). In addition, the “POST Application ECHCG herbicidal damage” value in test [9] is listed as 5 (5=80-100% damage). In [10], the “POST Application SOLNI herbicidal damage” value is given as 5 (5=80-100% damage). Besides, in test [11], the “POST Application AMARE herbicidal damage” value is recorded as 5 (5=80-100% damage). The “POST Application IPOHE herbicidal damage” value in [12] is recorded as 5 (5=80-100% damage).

As for `C=Cc1cccc(-c2c(C(F)(F)F)ccn(-c3cnn(C)c(=O)c3O)c2=O)c1` [Compound 7.011], in [1], the “PRE Application ALOMY herbicidal damage” value is recorded as 2 (2=20-39% damage). Moreover, the “PRE Application SETFA herbicidal damage” value in test [2] was 2 (2=20-39% damage). Moreover, the “PRE Application ECHCG herbicidal damage” value in test [3] is on record as 1 (1=0-19% damage). Moreover, the “PRE Application SOLNI herbicidal damage” value in test [4] is on record as 5 (5=80-100% damage). In addition, the “PRE Application AMARE herbicidal damage” value in test [5] is 5 (5=80-100% damage). Moreover, in test [6], the “PRE Application IPOHE herbicidal damage” value is reported as 2 (2=20-39% damage). The “POST Application ALOMY herbicidal damage” value in test [7] was 1 (1=0-19% damage). Further, the “POST Application SETFA herbicidal damage” value in [8] is 3 (3=40-59% damage). Besides, the “POST Application ECHCG herbicidal damage” value in [9] is on record as 5 (5=80-100% damage). Moreover, in test [10], the “POST Application SOLNI herbicidal damage” value is recorded as 5 (5=80-100% damage). In [11], the “POST Application AMARE herbicidal damage” value is given as 5 (5=80-100% damage). The “POST Application IPOHE herbicidal damage” value in test [12] is reported as 3 (3=40-59% damage).

Turning to `Cn1ncc(-n2ccc(C(F)(F)F)c(-c3cccc(F)c3)c2=O)c(O)c1=O` [Compound 7.012], in test [1], the “PRE Application ALOMY herbicidal damage” value is 5 (5=80-100% damage). Besides, the “PRE Application SETFA herbicidal damage” value in test [2] was 5 (5=80-100% damage). Moreover, the “PRE Application ECHCG herbicidal damage” value in test [3] is 5 (5=80-100% damage). In addition, the “PRE Application SOLNI herbicidal damage” value in test [4] is given as 5 (5=80-100% damage). Further, the “PRE Application AMARE herbicidal damage” value in test [5] is reported as 5 (5=80-100% damage). Moreover, the “PRE Application IPOHE herbicidal damage” value in test [6] was 1 (1=0-19% damage). Also, the “POST Application ALOMY herbicidal damage” value in [7] is 5 (5=80-100% damage). Also, the “POST Application SETFA herbicidal damage” value in test [8] is 5 (5=80-100% damage). For the same molecule, in test [9], the “POST Application ECHCG herbicidal damage” value is 5 (5=80-100% damage). In addition, the “POST Application SOLNI herbicidal damage” value in [10] is 5 (5=80-100% damage). Also, the “POST Application AMARE herbicidal damage” value in test [11] is 5 (5=80-100% damage). The “POST Application IPOHE herbicidal damage” value in test [12] is given as 5 (5=80-100% damage).

In the case of `CC(C)c1cccc(-c2c(C(F)(F)F)ccn(-c3cnn(C)c(=O)c3O)c2=O)c1` [Compound 7.014], in [1], the “PRE Application ALOMY herbicidal damage” value is recorded as 3 (3=40-59% damage). The “PRE Application SETFA herbicidal damage” value in test [2] is 4 (4=60-79% damage). Moreover, the “PRE Application ECHCG herbicidal damage” value in [3] was 3 (3=40-59% damage). Further, the “PRE Application SOLNI herbicidal damage” value in test [4] is given as 5 (5=80-100% damage). Further, the “PRE Application AMARE herbicidal damage” value in [5] was 5 (5=80-100% damage). The “PRE Application IPOHE herbicidal damage” value in test [6] is on record as 1 (1=0-19% damage). The “POST Application ALOMY herbicidal damage” value in [7] was 1 (1=0-19% damage). For the same molecule, the “POST Application SETFA herbicidal damage” value in [8] is reported as 4 (4=60-79% damage). Also, the “POST Application ECHCG herbicidal damage” value in test [9] is 5 (5=80-100% damage). For the same molecule, the “POST Application SOLNI herbicidal damage” value in test [10] was 5 (5=80-100% damage). The “POST Application AMARE herbicidal damage” value in test [11] is 5 (5=80-100% damage). Further, the “POST Application IPOHE herbicidal damage” value in [12] was 3 (3=40-59% damage).

As for `COc1ccc(C(C)C)cc1-c1c(C(F)(F)F)ccn(-c2cnn(C)c(=O)c2O)c1=O` [Compound 7.015], the “PRE Application ALOMY herbicidal damage” value in test [1] is listed as 3 (3=40-59% damage). The “PRE Application SETFA herbicidal damage” value in test [2] is listed as 4 (4=60-79% damage). For the same molecule, in [3], the “PRE Application ECHCG herbicidal damage” value is 3 (3=40-59% damage). Further, in [4], the “PRE Application SOLNI herbicidal damage” value is given as 5 (5=80-100% damage). For the same molecule, the “PRE Application AMARE herbicidal damage” value in [5] was 5 (5=80-100% damage). For the same molecule, the “PRE Application IPOHE herbicidal damage” value in test [6] was 4 (4=60-79% damage). The “POST Application ALOMY herbicidal damage” value in test [7] is given as 2 (2=20-39% damage). The “POST Application SETFA herbicidal damage” value in [8] is recorded as 3 (3=40-59% damage). For the same molecule, the “POST Application ECHCG herbicidal damage” value in test [9] is 4 (4=60-79% damage). The “POST Application SOLNI herbicidal damage” value in test [10] was 5 (5=80-100% damage). Further, in test [11], the “POST Application AMARE herbicidal damage” value is reported as 5 (5=80-100% damage). Besides, the “POST Application IPOHE herbicidal damage” value in test [12] is given as 3 (3=40-59% damage).

Take `CCOc1cccc(-c2c(C(F)(F)F)ccn(-c3cnn(C)c(=O)c3O)c2=O)c1` [Compound 7.016]: in [1], the “PRE Application ALOMY herbicidal damage” value was 2 (2=20-39% damage). Besides, the “PRE Application SETFA herbicidal damage” value in [2] is listed as 2 (2=20-39% damage). Besides, in test [3], the “PRE Application ECHCG herbicidal damage” value is listed as 2 (2=20-39% damage). Besides, in test [4], the “PRE Application SOLNI herbicidal damage” value is recorded as 5 (5=80-100% damage). The “PRE Application AMARE herbicidal damage” value in [5] is given as 5 (5=80-100% damage). For the same molecule, the “PRE Application IPOHE herbicidal damage” value in test [6] is listed as 1 (1=0-19% damage). Moreover, the “POST Application ALOMY herbicidal damage” value in test [7] is 2 (2=20-39% damage). Further, the “POST Application SETFA herbicidal damage” value in test [8] is reported as 2 (2=20-39% damage). Also, the “POST Application ECHCG herbicidal damage” value in [9] is 2 (2=20-39% damage). For the same molecule, the “POST Application SOLNI herbicidal damage” value in test [10] is 5 (5=80-100% damage). In addition, the “POST Application AMARE herbicidal damage” value in test [11] is on record as 5 (5=80-100% damage). In addition, in [12], the “POST Application IPOHE herbicidal damage” value is given as 1 (1=0-19% damage).

These data come from patent publication US9693556B2, “Herbicidal pyridazinone derivatives” (SYNGENTA LIMITED, priority 2011, dated 2017).
